In patent US12459930B2, “Compounds for the inhibition of unregulated cell growth” (GODAVARI BIOREFINERIES LIMITED, priority 2018, dated 2025):
pIC50: −log10 of the molar value. Structures can show the parent of a compound that is named as a salt. Where two headings read alike, the source gives them in different places.

Tests used:
[1] = tested on: DU145 prostate cancer cell line; assay: In vitro antiproliferative assay (MTT assay), DU145; assay type: cell-based; details: 48 hrs drug incubation, read-out: IC50 in micromolar, DU145 (MTT assay)
Protocol: (§1) MTT assay is a simple and sensitive assay where, metabolic reducing activity of the cells is measured. The increase of this activity in time is taken as a parameter of cell growth. If treatment with a drug impairs this increase, the action is a consequence of growth inhibition, cell killing or both. […] All cell lines were cultured in a 37° C. incubator with a 5% CO2 environment. Compounds were dissolved in DMSO with a concentration of 0.1M (stock solution). Cells were seeded into 96-well plates at suitable plating efficiency.
(§2) Following plating efficiencies were standardized for MTT assay:
(§3) In the MTT procedure, the cells were plated in 96 well plates as per predetermined plating efficiency (Table1). The plates were then incubated for 24 hrs in 5% CO2 atmosphere at 37° C. Appropriate concentrations of the drugs were then added to the plate and further incubation was carried out for 48 hrs (in 5% CO2 atmosphere at 37° C.). The assay plate was then centrifuged twice at 3000 rpm for 3 mins and supernatant was then discarded. 100 ul of MTT solution (0.5 mg/ml) was then added to each well of the plate and it was further incubated for 4 hrs (in 5% CO2 atmosphere at 37° C.) Following 4 hr incubation, the plate was then centrifuged twice, and supernatant was aspirated off very carefully. 200 ul of DMSO was then added to each well to solubilize. MTT crystals and mixed well by shaking the plate. XY graph of log percent viability was then plotted against log drug concentration.

[2] = tested on: MDAMB231 breast cancer cell line; assay: In vitro antiproliferative assay (MTT assay), MDAMB231; assay type: cell-based; details: 48 hrs drug incubation, read-out: IC50 in micromolar, MDAMB231 (MTT assay)
Protocol: as §1, §2, §3

[3] = tested on: MDAMB231 breast cancer cell line; assay: Soft agar colony-formation assay, MDAMB231; assay type: cell-based; details: 1 week, Alamar Blue, read-out: IC50 in micromolar, MDAMB231 (Soft Agar Assay)
Protocol: (§4) The Soft Agar Colony-formation Assay is an anchorage-independent growth assay in soft agar, which is one of the most stringent assays for detecting malignant transformation of cells. For this assay, malignant cells are cultured with appropriate controls in soft agar medium for 1-2 weeks. Following this incubation period, formed colonies can either be analyzed morphologically using cell stain and quantifying the number of colonies formed.
(§5) Briefly, for Soft Agar Assay a mixture of 50 ul of 2× medium (taken appropriately as per cell line) and 50 ul of 1.2% Bacto Agar were plated on to each well of 96 well micro titer assay plate. 10 ul of cells (of specific plating efficiency pre standardized for respective cell line) were mixed with 20 ul of 2× medium and 30 ul of 0.8% of Bacto Agar and 1.6 ul of drug (of appropriate concentration) in a vial and transferred to the solidified pre layers of the assay plates. The cells were then allowed to grow and form colonies at 37° C. and 5% C02 for 1 week. An intermittent feeding with 50 ul of appropriate 2× medium was performed after 3 days of experimental set up. 16 ul of Alamar Blue (1.5 mg/ml) was then added to all the wells to quantify the developed colonies. The plates were incubated for 24 hrs at 37° C. Absorbance was then measured at 630 nm. XY graph of log Percent viability was then plotted against log drug concentration.
(§6) Following plating efficiencies were standardized for Soft Agar Assay: […]

[4] = tested on: PC3 prostate cancer cell line; assay: Soft agar colony-formation assay, PC3; assay type: cell-based; details: 1 week, Alamar Blue, read-out: IC50 in micromolar, PC3 (Soft Agar Assay)
Protocol: as §4, §5, §6

[5] = tested on: MDAMB231 spheres (cancer stem cells); assay: In vitro sphere-forming assay (cancer stem cells), MDAMB231 in Mammosphere media; details: for 3D sphere count of MDAMB231 in Mammosphere media: 2000 cells/well, n = 6 ± S.D; for viability at 0.0025 µM / viability at 0.025 µM / viability at 0.25 µM / viability at 2.5 µM / viability at 25 µM: Homo sapiens, MDA-MB-231, read-out: % Viability of spheres (MDAMB231)
Protocol: (§7) In Vitro Sphere-forming Assay: Sphere assay measures the ability of cancer stem cells (CSCs) to form spheres in specially designed serum-free medium.
Mammosphere Media Preparation (For 100 mL): 1 g methyl cellulose autoclaved with magnetic stirrer, 100 ml plain media (MEBM) was added and dissolved under magnetic stirring. After complete dissolution FGF—80 μL, EGF—40 μL, Penstrep—1 mL, Heparin—400 μL was added.
(§8) Procedure—The cells were trypsinised and made into single-cell suspension by passing through cell strainers (100 μl and 40 μl, respectively), The cells were diluted at a concentration of 2000 cells/100 μL and suspended in either Mammosphere (for breast cell lines) or Prostosphere (for prostate cell lines). 100 μL of this suspension was added into each well of 96-well suspension plates and incubated at 37 C, 50 CO2 for 24 hrs. Appropriate concentrations of the drugs (2 L) were added into respective wells with 100 μL of stem cell culture medium. Plates were incubated at 37° C., 50% CO2 for 72 hrs. After incubation, 2.5 μL of the respective drug concentration and 50 μL of stem cell culture medium were added into each well and the plates were further incubated at 37° C., 500 CO2 for 72 hrs. 3 μL of the respective drug concentration was added with 50 μL of stem cell culture medium again after incubation and plates were reincubated for 72 hrs at 37° C., 500 CO2. Number of primary spheres formed for each concentration were counted. The spheres were converted to 0 viability of spheres compared to untreated (Growth Control with DMSO, GCD).

[6] = tested on: PC3 spheres (cancer stem cells); assay: In vitro sphere-forming assay (cancer stem cells), PC3 in Prostosphere media; details: for 3D sphere count of PC3 in Prostosphere media: 2000 cells/well, n = 6 ± S.D; for viability at 0.0025 µM: read-out: % Viability of spheres (PC3), 0.0025 uM; for viability at 0.025 µM: read-out: % Viability of spheres (PC3), 0.025 uM; for viability at 0.25 µM: read-out: % Viability of spheres (PC3), 0.25 uM; for viability at 2.5 µM: read-out: % Viability of spheres (PC3), 2.5 uM; for viability at 25 µM: read-out: % Viability of spheres (PC3), 25 uM
Excerpt: as §7
Materials and Reagents:50×B27 Supplement (Life Technologies, Invitrogen, Catlog No.: 17502-044), Fibroblast Growth Factor (FGF) (Sigma-Aldrich, Catlog No.: F029125), Epidermal Growth Factor (EGF) (Sigma-Aldrich, Catlog No.: E9644), Insulin (Sigma, Catlog No.: 19278), Dulbecco's Modified Eagle Medium/F12 (HiMedia Catlog No.: AL139-6), Dulbecco's Phosphate Buffered Saline (HiMedia Catlog No.: TL1006), Trypan Blue (TC193), Prostate Epithelial Media (LONZA, Catlog No.: CC-3166) MEGM (LONZA, Catlog No.: CC-3051), Heparin (Sigma, Catlog No.: H3393), Penstrep (HiMedia, Catlog No.: A002)
Prostosphere Media Preparation (For 100 mL): 1 g methyl cellulose autoclaved with magnetic stirrer, 100 mL plain media (Prostate Epithelial Basal Medium) was added and dissolved, under magnetic stirring. After complete dissolution, Insulin—40 μL, B27—2 mL, EGF—80 μL, Penstrep—1 ml was added.
as §8

[7] = tested on: PC3 prostate cancer cell line; assay: In vitro antiproliferative assay (MTT assay), PC3; assay type: cell-based; details: 48 h, 48 hrs drug incubation, read-out: IC50 in micromolar, PC3 (MTT assay)
Protocol: as §1, §2, §3

[8] = Homo sapiens, MDA-MB-231, 168 h

SMILES	pIC50 ([1]; Homo sapiens, DU-145, 48 h)	pIC50 ([2]; Homo sapiens, MDA-MB-231, 48 h)	pIC50 ([4]; 168 h)	3D sphere count of MDAMB231 in Mammosphere media ([5]; 0.0025 uM)	3D sphere count of MDAMB231 in Mammosphere media ([5]; 0.025 uM)	3D sphere count of MDAMB231 in Mammosphere media ([5]; 0.25 uM)	3D sphere count of MDAMB231 in Mammosphere media ([5]; 2.5 uM)	3D sphere count of MDAMB231 in Mammosphere media ([5]; 25 uM)	viability at 0.0025 µM [5]	viability at 0.025 µM [5]	viability at 0.25 µM [5]	3D sphere count of PC3 in Prostosphere media ([6]; 0.025 uM)	3D sphere count of PC3 in Prostosphere media ([6]; 0.25 uM)	3D sphere count of PC3 in Prostosphere media ([6]; 2.5 uM)	3D sphere count of PC3 in Prostosphere media ([6]; 25 uM)	viability at 0.025 µM ([6]; GCD = 100% viability)	viability at 0.25 µM ([6]; GCD = 100% viability)	viability at 2.5 µM ([6]; GCD = 100% viability)	viability at 25 µM ([6]; GCD = 100% viability)	pIC50 [7]	other results
c1ccc2c(-c3ccc4c(c3)OCO4)ccc(OCCCCNC3CCCCC3)c2c1 [Formula XIV, N-(4-(1-(benzo[d][1,3]dioxol-5-yl)naphthalen-4-yloxy)butyl)cyclohexan amine]	6.27	6.51	6.40	47(±3)	43(±3)	21(±7)	21(±3)	7(±3)	57%	52%	26%	44(±5)	39(±5)	24(±3)	13(±3)	51%	45%	28%	15%	6.46	pIC50 [3, 8]: 5.55; viability at 2.5 µM [5]: 26%; viability at 25 µM [5]: 9%; 3D sphere count of PC3 in Prostosphere media ([6]; 0.0025 uM): 56(±3); viability at 0.0025 µM ([6]; GCD = 100% viability): 64%
c1cnc2c(OCCCCNC3CCCCC3)ccc(-c3ccc4c(c3)OCO4)c2c1 [Formula XVII, N-(4-(5-(benzo[d][1,3]dioxol-5-yl)quinolin-8-yloxy)butyl)cyclohexanamine]	5.70	5.67																		5.55	
C=CCNCCCCCCOc1ccc(-c2ccc3c(c2)OCO3)c2c1CCCC2 [Formula XXII, 6-(5-(benzo[d][1,3]dioxol-5-yl)-1,2,3,4-tetrahydronaphthalen-8-yloxy)-N-allylhexan-1-amine]	5.83	5.87		47(±3)	34(±3)	24(±4)	9(±2)	0(±0)	55%	39%	28%	44(±4)	36(±3)	25(±3)	14(±3)	52%	43%	30%	17%	5.61	viability at 2.5 µM [5]: 10%; viability at 25 µM [5]: 0%; 3D sphere count of PC3 in Prostosphere media ([6]; 0.0025 uM): 55(±3); viability at 0.0025 µM ([6]; GCD = 100% viability): 66%
O=C(CCCOc1ccc(-c2ccc3c(c2)OCO3)c2ccccc12)N1CCOCC1 [Formula XV, 4-(1-(benzo[d][1,3]dioxol-5-yl)naphthalen-4-yloxy)-1-morpholinobutan-1-one]	5.60	5.31	5.51	53(±2)	51(±5)	40(±6)	31(±3)	16(±4)	64%	62%	49%									5.11	pIC50 [3, 8]: 5.27; viability at 2.5 µM [5]: 38%; viability at 25 µM [5]: 19%
c1cnc2c(OCCCCCCN3CCOCC3)ccc(-c3ccc4c(c3)OCO4)c2c1 [Formula XVI, 8-(6-morpholinohexyloxy)-5-(benzo[d][1,3]dioxol-5-yl)quinoline]	5.45	5.42		61(±3)	51(±3)	42(±3)	37(±3)	22(±4)	71%	59%	49%	53(±4)	42(±4)	34(±3)	25(±4)	63%	50%	40%	30%	5.26	viability at 2.5 µM [5]: 43%; viability at 25 µM [5]: 25%; 3D sphere count of PC3 in Prostosphere media ([6]; 0.0025 uM): 72(±6); viability at 0.0025 µM ([6]; GCD = 100% viability): 86%
CCOC(=O)N1CCN(CCCCCCOc2c3c(c(-c4ccc5c(c4)OCO5)c4cc(OC)c(OC)cc24)C(=O)OC3)CC1 [Formula IX, ethyl 4-(6-(9-(benzo[d][1,3]dioxol-5-yl)-1,3-dihydro-6,7-dimethoxy-1-oxonaphtho[2,3-c]furan-4-yloxy)hexyl)piperazine-1-carboxylate Hydrochloride]	4.97	4.96	5.48																		pIC50 ([3]; hydrochloride): 6.49
COc1cc2c(OCCCCN3CCOCC3)c3c(c(-c4ccc5c(c4)OCO5)c2cc1OC)C(=O)OC3 [Formula VI, 4-(4-morpholinobutoxy)-9-(benzo[d][1,3]dioxol-5-yl)-6,7-dimethoxynaphtho[2,3-c]furan-1(3H)-one]												49(±2)	41(±2)	37(±2)	27(±2)	57%	48%	43%	31%		pIC50 [1]: 5.39; pIC50 [2]: 4.96; pIC50 [3]: 5.57; pIC50 [4]: 5.58; 3D sphere count of PC3 in Prostosphere media ([6]; 250 uM): 0(±0); viability at 250 µM ([6]; read-out: % Viability of spheres (PC3), 250 uM, GCD = 100% viability): 0%
c1cc2c(cc1-c1ccc(OCCN3CCOCC3)c3c1CCCC3)OCO2 [Formula XXI, 4-(2-(5-(benzo[d][1,3]dioxol-5-yl)-1,2,3,4-tetrahydronaphthalen-8-yloxy)ethyl) morpholine]	5.37	5.38	5.56									54(±2)	50(±2)	45(±3)	36(±2)	68%	63%	57%	45%	5.41	pIC50 [3, 8]: 5.36; 3D sphere count of PC3 in Prostosphere media ([6]; 0.0025 uM): 62(±4); viability at 0.0025 µM ([6]; GCD = 100% viability): 78%
